From the C3SDB collision cross section collection

Tests used:
[1] = [M+H]+; instrument: TW
[2] = instrument: DT, single field, calibrated with Agilent tune mix (Agilent)
[3] = instrument: TW, calibrated with phosphatidylcholines (ESI+) and phosphatidylethanolamines (ESI-)
[4] = instrument: DT, stepped-field

With `C[C@]12C=CC3=C4CCC(=O)C=C4CC[C@H]3[C@@H]1CC[C@@H]2O` [17B-Trenbolone] the “collision cross section (N2)” value [1] was 163.3 Å².

With `C[C@]12CC[C@H]3[C@@H](CCC4=CC(=O)CC[C@H]43)[C@@H]1CC[C@H]2O` [17a-Nortestosterone] the “collision cross section (N2)” value [1] was 165.7 Å².

In the case of `CC12C=CC3=C4CCC(=O)C=C4CCC3C1CCC2O` (stereo not given) [17a-Trenbolone], the “collision cross section (N2)” value [1] is reported as 163.3 Å².

With `CNC(=O)ON=CC(C)(C)S(C)=O` (stereo not given) [Aldicarb sulfoxide] the “collision cross section (N2)” value [1] was 145.4 Å².

In the case of `CCCC/C=C\C/C=C\CCCCCCCC(=O)O[C@H](COC(=O)CCCCCCC/C=C\CCCCCCCCC)COP(=O)(O)O` [PA(36:3)], the “collision cross section (N2)” value ([2]; [M+NH4]+) is reported as 270.8 Å² and the “collision cross section (N2)” value ([3]; [M-H]-) is reported as 257.9 Å².

With `CCCCC/C=C\C/C=C\C/C=C\C/C=C\CCCCCC(=O)O[C@H](COC(=O)CCCCCCCCCCCCC)COP(=O)(O)O` [PA(36:4)] the “collision cross section (N2)” value ([2]; [M+NH4]+) was 272.4 Å², the “collision cross section (N2)” value ([2]; [M-H]-) was 258.1 Å² and the “collision cross section (N2)” value ([3]; [M-H]-) was 257.1 Å².

With `CCCCC/C=C\C/C=C\C/C=C\CCCCC(=O)O[C@H](COC(=O)CCCCCCCCC/C=C\CCCCCCCC)COP(=O)(O)O` [PA(38:4)] the “collision cross section (N2)” value ([2]; [M+NH4]+) was 279.1 Å², the “collision cross section (N2)” value ([2]; [M-H]-) was 264.3 Å² and the “collision cross section (N2)” value ([3]; [M-H]-) was 263.4 Å².

For `CCCCC/C=C\C/C=C\C/C=C\C/C=C\C/C=C\CCC(=O)O[C@H](COC(=O)CCCCCCCCCCCCC)COP(=O)([O-])OCC[N+](C)(C)C` [PC(36:5)], the “collision cross section (N2)” value ([2]; [M+H]+) was 284.5 Å² and the “collision cross section (N2)” value ([3]; [M+H]+) was 284.1 Å².

With `CCCCC/C=C\C/C=C\CCCCCCCCCC(=O)O[C@H](COC(=O)CCCCCCCCC/C=C\CCCCCC)COP(=O)([O-])OCC[N+](C)(C)C` [PC(38:3)] the “collision cross section (N2)” value ([2]; [M+H]+) was 295 Å², the “collision cross section (N2)” value ([3]; [M+CH3COO]-) was 296.7 Å² and the “collision cross section (N2)” value ([3]; [M+H]+) was 291.9 Å².

In the case of `CCCCC/C=C\C/C=C\C/C=C\CCCCC(=O)OC[C@H](COP(=O)([O-])OCC[N+](C)(C)C)OC(=O)CCCCCCCCC/C=C\C/C=C\CCCCC` [PC(38:5)], the “collision cross section (N2)” value ([2]; [M+HCOO]-) is reported as 293 Å², the “collision cross section (N2)” value ([2]; [M+H]+) is reported as 292.9 Å² and the “collision cross section (N2)” value ([2]; [M+Na]+) is reported as 296.8 Å². For the same compound, the “collision cross section (N2)” value ([3]; [M+CH3COO]-) was 295.4 Å² and the “collision cross section (N2)” value ([3]; [M+H]+) was 289.7 Å².

With `CC/C=C\C/C=C\C/C=C\C/C=C\CCCCC(=O)O[C@H](COC(=O)CCCCCC/C=C\C/C=C\C/C=C\CCCCC)COP(=O)([O-])OCC[N+](C)(C)C` [PC(38:7)] the “collision cross section (N2)” value ([2]; [M+H]+) was 288.2 Å² and the “collision cross section (N2)” value ([3]; [M+H]+) was 286.5 Å².

With `CCCCC/C=C\C/C=C\C/C=C\C/C=C\CCCCCC(=O)O[C@H](COC(=O)CCCCCCC/C=C\CCCCCCCC)COP(=O)([O-])OCC[N+](C)(C)C` [PC(40:5)] the “collision cross section (N2)” value ([2]; [M+H]+) was 298.8 Å², the “collision cross section (N2)” value ([2]; [M+Na]+) was 302 Å² and the “collision cross section (N2)” value ([3]; [M+H]+) was 295.5 Å².

For `CCCCC/C=C\C/C=C\C/C=C\C/C=C\CCCCCC(=O)O[C@H](COC(=O)CCCC/C=C\C/C=C\C/C=C\CCCCC)COP(=O)([O-])OCC[N+](C)(C)C` [PC(40:7)], the “collision cross section (N2)” value ([2]; [M+H]+) was 293.6 Å² and the “collision cross section (N2)” value ([3]; [M+H]+) was 293.2 Å².

In the case of `CCCCCCCCCC/C=C\CCCCCCCCCC(=O)O[C@H](COC(=O)CCCCCCCCCCCCC)COP(=O)(O)OCCN` [PE(36:1)], the “collision cross section (N2)” value ([2]; [M+H]+) is reported as 281.3 Å², the “collision cross section (N2)” value ([2]; [M+Na]+) is reported as 287.5 Å² and the “collision cross section (N2)” value ([2]; [M-H]-) is reported as 269.9 Å². The “collision cross section (N2)” value ([4]; [M+Na]+) was 288.5 Å², the “collision cross section (N2)” value ([3]; [M+H]+) was 278.7 Å² and the “collision cross section (N2)” value ([3]; [M-H]-) was 268.8 Å².

With `CCCCC/C=C\C/C=C\C/C=C\CCCCCCC(=O)O[C@H](COC(=O)CCCCCCC/C=C\CCCCCC)COP(=O)(O)OCCN` [PE(36:4)] the “collision cross section (N2)” value ([2]; [M+Na]+) was 281.2 Å², the “collision cross section (N2)” value ([2]; [M-H]-) was 265.2 Å² and the “collision cross section (N2)” value ([4]; [M+Na]+) was 280.6 Å². For the same compound, the “collision cross section (N2)” value ([3]; [M-H]-) was 265.7 Å².

With `CC/C=C\C/C=C\C/C=C\C/C=C\CCCCC(=O)OC[C@H](COP(=O)(O)OCCN)OC(=O)CCCCCCCCC/C=C\C/C=C\CCCCC` [PE(38:6)] the “collision cross section (N2)” value ([2]; [M+Na]+) was 283.6 Å², the “collision cross section (N2)” value ([2]; [M-H]-) was 269.8 Å² and the “collision cross section (N2)” value ([4]; [M+K]+) was 288.7 Å². For the same compound, the “collision cross section (N2)” value ([4]; [M+Na]+) was 285 Å², the “collision cross section (N2)” value ([3]; [M+H]+) was 275.7 Å² and the “collision cross section (N2)” value ([3]; [M-H]-) was 269.2 Å².

In the case of `CC/C=C\C/C=C\C/C=C\C/C=C\CCCCC(=O)OC[C@H](COP(=O)(O)OCCN)OC(=O)CCCCC/C=C\C/C=C\C/C=C\C/C=C\CCCCC` [PE(40:8)], the “collision cross section (N2)” value ([2]; [M+Na]+) is reported as 287.3 Å², the “collision cross section (N2)” value ([4]; [M+Na]+) is reported as 289.2 Å² and the “collision cross section (N2)” value ([3]; [M+H]+) is reported as 280.7 Å².

In the case of `CC/C=C\C/C=C\C/C=C\CCCCCCCC(=O)O[C@H](CO/C=C\CCCCCCCCCCCCCCCC)COP(=O)(O)OCCN` [PE(p36:3)], the “collision cross section (N2)” value ([2]; [M-H]-) is reported as 265.6 Å² and the “collision cross section (N2)” value ([3]; [M-H]-) is reported as 265.2 Å².

In the case of `CC/C=C\C/C=C\C/C=C\C/C=C\C/C=C\C/C=C\CCC(=O)O[C@H](CO/C=C\CCCCCCCCCCCCCC)COP(=O)(O)OCCN` [PE(p38:6)], the “collision cross section (N2)” value ([2]; [M+H]+) is reported as 278 Å², the “collision cross section (N2)” value ([3]; [M+H]+) is reported as 276.9 Å² and the “collision cross section (N2)” value ([3]; [M-H]-) is reported as 268.1 Å².

For `CC/C=C\C/C=C\C/C=C\C/C=C\C/C=C\CCCC(=O)O[C@H](CO/C=C\CCCCCCCCCCCCCCCCCC)COP(=O)(O)OCCN` [PE(p40:5)], the “collision cross section (N2)” value ([2]; [M-H]-) was 276.1 Å², the “collision cross section (N2)” value ([3]; [M+H]+) was 284.7 Å² and the “collision cross section (N2)” value ([3]; [M-H]-) was 274.8 Å².

With `CCCC/C=C\CCCCCCCC(=O)OC[C@H](COP(=O)(O)O[C@H]1C(O)C(O)C(O)[C@@H](O)C1O)OC(=O)CCCCCCCCC/C=C\CCCCCCCCCC` (stereo not given in full) [PI(36:2)] the “collision cross section (N2)” value ([2]; [M+H]+) was 299.3 Å², the “collision cross section (N2)” value ([2]; [M+Na]+) was 297.6 Å² and the “collision cross section (N2)” value ([2]; [M-H]-) was 289.3 Å². The “collision cross section (N2)” value ([3]; [M+Na]+) was 293.3 Å² and the “collision cross section (N2)” value ([3]; [M-H]-) was 288.7 Å².

For `CC/C=C\C/C=C\C/C=C\C/C=C\CCCCC(=O)OC[C@H](COP(=O)(O)O[C@H]1C(O)C(O)C(O)[C@@H](O)C1O)OC(=O)CCCCCCCCC/C=C\CCCCCCCCCC` (stereo not given in full) [PI(40:5)], the “collision cross section (N2)” value ([2]; [M+H]+) was 307.1 Å², the “collision cross section (N2)” value ([2]; [M+NH4]+) was 308.6 Å² and the “collision cross section (N2)” value ([2]; [M+Na]+) was 305.8 Å². The “collision cross section (N2)” value ([2]; [M-H]-) was 297.7 Å², the “collision cross section (N2)” value ([3]; [M+Na]+) was 301.1 Å² and the “collision cross section (N2)” value ([3]; [M-H]-) was 296.5 Å².

With `CC/C=C\C/C=C\C/C=C\C/C=C\C/C=C\C/C=C\CCC(=O)O[C@H](COC(=O)CCCCCCCCCCCCCCCCC)COP(=O)(O)O[C@H]1C(O)C(O)C(O)[C@@H](O)C1O` (stereo not given in full) [PI(40:6)] the “collision cross section (N2)” value ([2]; [M+NH4]+) was 306.1 Å², the “collision cross section (N2)” value ([2]; [M-H]-) was 296.4 Å² and the “collision cross section (N2)” value ([3]; [M+Na]+) was 299.8 Å².
